In patent US20240158392A1 (Janssen Biotech, Inc., priority 2021, published 2024) one finds IC50 data, which are given here for 27 compounds.

SMILES strings stand for the structures.

Assay [1] deals with T1, SIK2 (Homo sapiens, UniProt Q9H0K1). The experiment in a line: SIK2 Enzymatic Assay High Version 2 (High ATP). The format is biochemical. The essentials: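 At room temperature, enzyme (6 nM, 2× final) was preincubated with compound for 30 min, then 6 mM ATP and 400 μM HDAC5tide (both 2× final) were added for 2 h. ADP formed was measured by ADP-Glo Max (2 h reagent, 1 h detection) using luminescence.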
T1 sequence (Q9H0K1 whole entry, species assumed): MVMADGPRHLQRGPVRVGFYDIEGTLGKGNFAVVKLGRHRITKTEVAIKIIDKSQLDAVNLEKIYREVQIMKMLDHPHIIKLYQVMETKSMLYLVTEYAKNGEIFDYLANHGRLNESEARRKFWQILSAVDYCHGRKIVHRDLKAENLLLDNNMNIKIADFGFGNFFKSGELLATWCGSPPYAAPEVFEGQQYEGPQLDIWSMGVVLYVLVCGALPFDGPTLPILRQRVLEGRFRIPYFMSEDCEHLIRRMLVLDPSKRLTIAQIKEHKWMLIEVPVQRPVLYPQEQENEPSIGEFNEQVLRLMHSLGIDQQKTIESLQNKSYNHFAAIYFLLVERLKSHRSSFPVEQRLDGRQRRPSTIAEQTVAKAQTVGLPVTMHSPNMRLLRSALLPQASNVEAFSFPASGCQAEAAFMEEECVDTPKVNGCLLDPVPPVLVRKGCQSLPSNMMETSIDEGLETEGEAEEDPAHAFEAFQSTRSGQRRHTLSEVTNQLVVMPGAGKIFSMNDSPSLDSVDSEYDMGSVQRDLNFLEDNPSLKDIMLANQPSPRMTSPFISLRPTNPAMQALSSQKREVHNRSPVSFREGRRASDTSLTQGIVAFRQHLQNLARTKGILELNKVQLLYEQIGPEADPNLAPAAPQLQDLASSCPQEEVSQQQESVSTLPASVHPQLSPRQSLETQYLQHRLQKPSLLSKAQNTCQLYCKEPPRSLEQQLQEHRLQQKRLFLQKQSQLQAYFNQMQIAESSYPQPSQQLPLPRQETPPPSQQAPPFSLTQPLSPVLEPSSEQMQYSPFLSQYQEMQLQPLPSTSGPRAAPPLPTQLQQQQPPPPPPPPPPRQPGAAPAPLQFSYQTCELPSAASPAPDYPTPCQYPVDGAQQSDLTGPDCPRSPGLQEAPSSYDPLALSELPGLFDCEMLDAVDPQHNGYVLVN

Assay [2] has as its target T1, SIK2. The experiment in a line: SIK2 Enzymatic Assay Version 1 (ADP Glo). As to conditions: enzyme 0.6 nM, 160 μM ATP and 140 μM HDAC5tide (each 2× final concentration); 30 minutes pre-incubation, 4 hours; ADPGlo luminescence; read-out: SIK2 ADP Glo IC50 (μM) (Test Example 1). The format is biochemical. How it is done:
All steps were performed at room temperature. Compounds were pre-plated onto an assay plate using an Echo acoustic dispenser (Labcyte, E550 or E555) at 20 nL per well. Enzyme prepared in Assay Buffer at 0.6 nM (2× final concentration) was added at 2 μL per well using the Multidrop Combi (Thermo Fisher—used for all additions in this assay) to the assay plate, spun for 1 min at 800-850 rpm (Allegra 6KR Beckman Coulter centrifuge), and incubated with compound for 30 minutes.
One column of wells was dedicated to a no-peptide negative control (containing only ATP). ADPGlo Reagent (prepared and aliquoted as per manufacturer instructions) was then added at 2 μL per well, spun and incubated for 40 min. ADPGlo Detection (prepared and aliquoted as per manufacturer instructions) was added at 2 μL per well to the assay plate, which was spun and incubated for at least 30 min. The plate was then read on the Pherastar (BMG Labtech) using a luminescence read. Gain was set by the 0.1 mM concentration of ADP wells in the ADP/ATP standard curve plate generated as per manufacturer instructions.
On the technique in general: In ADP-Glo the light output rises with the ADP produced.

Usually IC50 stands for the concentration needed to halve the response being measured. With `N#Cc1cc(-c2ccn3nc(NC(=O)C4CC4)cc3c2)c(OCC2CNC(=O)C2)cn1` (racemic) [Example 33, rac-N-(5-(2-cyano-5-((5-oxopyrrolidin-3-yl)methoxy)pyridin-4-yl)pyrazolo[1,5-a]pyridin-2-yl)cyclopropanecarboxamide], the IC50 against SIK2 [1] came to 93.1 nM; at SIK2 [2] it was 0.00416 µM.

As for `N#Cc1cc(-c2ccn3nc(NC(=O)C4CC4)cc3c2)c(OCC2CCC(O)(C(F)(F)F)CC2)cn1` (racemic) [Example 178, rac-N-[5-[2-cyano-5-[[4-hydroxy-4-(trifluoromethyl)cyclohexyl]methoxy]-4-pyridyl]pyrazolo[1,5-a]pyridin-2-yl]cyclopropanecarboxamide], the results for the IC50 against SIK2 [1] and at SIK2 [2] were 12.9 nM and 0.000605 µM, respectively.

For `CN1CC[C@H](Oc2cnc(C#N)cc2-c2ccn3nc(NC(=O)C4CC4)cc3c2)C[C@@H]1C(F)(F)F` (relative stereo) [Example 30, N-(5-(2-cyano-5-(((2*R,4*S)-1-methyl-2-(trifluoromethyl)piperidin-4-yl)oxy)pyridin-4-yl)pyrazolo[1,5-a]pyridin-2-yl)cyclopropanecarboxamide], the IC50 on SIK2 [1] was found to be 4.5 nM; on SIK2 [2], 0.00044 µM.

Take `N#Cc1cc(-c2ccn3nc(NC(=O)C4CC4)cc3c2)c(O[C@@H]2CCN[C@H](C(F)(F)F)C2)cn1` (single isomer, unassigned) [Example 8, N-(5-(2-cyano-5-(((2*S,4*R)-2-(trifluoromethyl)piperidin-4-yl)oxy)pyridin-4-yl)pyrazolo[1,5-a]pyridin-2-yl)cyclopropanecarboxamide]: the IC50 was found to be 7.51 nM against SIK2 [1] and 0.000373 µM on SIK2 [2].

Regarding `N#Cc1cc(-c2ccn3nc(NC(=O)C4CC4)cc3c2)c(O[C@@H]2C[C@@H]3C[C@H]2CN3)cn1` (single isomer, unassigned) [Example 17, N-[5-[5-[[(1*S,4*S,5*R)-2-azabicyclo[2.2.1]heptan-5-yl]oxy]-2-cyano-4-pyridyl]pyrazolo[1,5-a]pyridin-2-yl]cyclopropanecarboxamide], the results for the IC50 against SIK2 [1] and at SIK2 [2] were 4.17 nM and 0.000402 µM, respectively.

For `CN1CC[C@@H](Oc2cnc(C#N)cc2-c2ccn3nc(NC(=O)C4CC4)cc3c2)C[C@H]1C(F)(F)F` (single isomer, unassigned) [Example 29, N-(5-(2-cyano-5-(((2*S,4*R)-1-methyl-2-(trifluoromethyl)piperidin-4-yl)oxy)pyridin-4-yl)pyrazolo[1,5-a]pyridin-2-yl)cyclopropanecarboxamide], the values for the IC50 on SIK2 [1] and on SIK2 [2] were 145 nM and 0.00575 µM, respectively.

Take `C[C@@](O)(COc1cnc(C#N)cc1-c1ccn2nc(NC(=O)C3CC3)cc2c1)C(F)(F)F` (single isomer, unassigned) [Example 49, (*R)—N-(5-(2-Cyano-5-(3,3,3-trifluoro-2-hydroxy-2-methylpropoxy)pyridin-4-yl)pyrazolo[1,5-a]pyridin-2-yl)cyclopropanecarboxamide]: the IC50 on SIK2 [1] amounted to 25.2 nM; at SIK2 [2], 0.000957 µM.

In the case of `C[C@](O)(COc1cnc(C#N)cc1-c1ccn2nc(NC(=O)C3CC3)cc2c1)C(F)(F)F` (single isomer, unassigned) [Example 50, (*S)—N-(5-(2-Cyano-5-(3,3,3-trifluoro-2-hydroxy-2-methylpropoxy)pyridin-4-yl)pyrazolo[1,5-a]pyridin-2-yl)cyclopropanecarboxamide], the IC50 worked out at 21.9 nM at SIK2 [1] and 0.00111 µM on SIK2 [2].

With `CC(=O)N1CCC(Oc2cnc(C#N)cc2-c2ccn3nc(NC(=O)C4CC4)cc3c2)C1` (single isomer, unassigned) [Example 56, (*R)—N-(5-(5-((1-Acetylpyrrolidin-3-yl)oxy)-2-cyanopyridin-4-yl)pyrazolo[1,5-a]pyridin-2-yl)cyclopropanecarboxamide], the 50% inhibitory concentration (IC50) at SIK2 [1] amounted to 69.2 nM; on SIK2 [2], 0.0036 µM.

As for `CN1CC2CN(c3cnc(C#N)cc3-c3ccn4nc(NC(=O)C5CC5)cc4c3)CC2C1` (stereo not drawn) [Example 90, N-[5-[2-cyano-5-(2-methyl-1,3,3a,4,6,6a-hexahydropyrrolo[3,4-c]pyrrol-5-yl)-4-pyridyl]pyrazolo[1,5-a]pyridin-2-yl]cyclopropanecarboxamide], at SIK2 [2], the IC50 was 0.0134 µM.

Turning to `CN1CC2(C1)CN(c1cnc(C#N)cc1-c1ccn3nc(NC(=O)C4CC4)cc3c1)C2` [Example 91, N-[5-[2-cyano-5-(2-methyl-2,6-diazaspiro[3.3]heptan-6-yl)-4-pyridyl]pyrazolo[1,5-a]pyridin-2-yl]cyclopropanecarboxamide], on SIK2 [2], the IC50 turned out to be 0.0688 µM.

With `Cc1cc(-c2ccn3nc(NC(=O)C4CC4)cc3c2)c(O[C@@H]2C[C@H]3CC[C@@H](C2)N3C)cn1` [Example 140, N-(5-(2-methyl-5-(((1R,3r,5S)-8-methyl-8-azabicyclo[3.2.1]octan-3-yl)oxy)pyridin-4-yl)pyrazolo[1,5-a]pyridin-2-yl)cyclopropanecarboxamide], the 50% inhibitory concentration (IC50) on SIK2 [2] amounted to 0.0195 µM.

For the compound `CCN1CC(Oc2cnc(C)cc2-c2ccn3nc(NC(=O)C4CC4)cc3c2)C1` [Example 141, N-[5-[5-(1-ethylazetidin-3-yl)oxy-2-methyl-4-pyridyl]pyrazolo[1,5-a]pyridin-2-yl]cyclopropanecarboxamide], the IC50 at SIK2 [2] amounted to 0.0138 µM.

For `Cc1cc(-c2ccn3nc(NC(=O)C4CC4)cc3c2)c(OC2CN(C(C)C)C2)cn1` [Example 142, N-[5-[5-(1-isopropylazetidin-3-yl)oxy-2-methyl-4-pyridyl]pyrazolo[1,5-a]pyridin-2-yl]cyclopropanecarboxamide], the IC50 at SIK2 [2] was 0.0448 µM.

As for `CO[C@H]1C[C@H](Oc2cnc(C)cc2-c2ccn3nc(NC(=O)C4CC4)cc3c2)C1` [Example 146, trans-N-[5-[5-(3-methoxycyclobutoxy)-2-methyl-4-pyridyl]pyrazolo[1,5-a]pyridin-2-yl]cyclopropanecarboxamide], the IC50 at SIK2 [2] turned out to be 0.0352 µM.

As to `CO[C@H]1C[C@@H](Oc2cnc(C)cc2-c2ccn3nc(NC(=O)C4CC4)cc3c2)C1` [Example 147, cis-N-[5-[5-(3-methoxycyclobutoxy)-2-methyl-4-pyridyl]pyrazolo[1,5-a]pyridin-2-yl]cyclopropanecarboxamide], the IC50 at SIK2 [2] was determined as 0.0124 µM.

As for `Cc1cc(-c2ccn3nc(NC(=O)C4CC4)cc3c2)c(OC[C@@H](N)C(C)(C)C)cn1` [Example 149, N-[5-[5-[(2S)-2-amino-3,3-dimethyl-butoxy]-2-methyl-4-pyridyl]pyrazolo[1,5-a]pyridin-2-yl]cyclopropanecarboxamide], the IC50 on SIK2 [2] amounted to 0.0122 µM.

Take `Cc1cc(-c2ccn3nc(Nc4ccc(C(=O)NC5CC5)c(F)c4)cc3c2)c(OCC(C)(C)O)cn1` [Example 615, N-cyclopropyl-2-fluoro-4-[[5-[5-(2-hydroxy-2-methyl-propoxy)-2-methyl-4-pyridyl]pyrazolo[1,5-a]pyridin-2-yl]amino]benzamide]: the IC50 on SIK2 [2] was 0.0117 µM.

Take `COc1ccccc1-c1ccn2nc(NC(=O)C3CC3)cc2c1` [Example 742, N-[5-(2-methoxyphenyl)pyrazolo[1,5-a]pyridin-2-yl]cyclopropanecarboxamide]: the IC50 at SIK2 [2] is 0.417 µM.

Regarding `CCOc1ccccc1-c1ccn2nc(NC(=O)C3CC3)cc2c1` [Example 743, N-[5-(2-ethoxyphenyl)pyrazolo[1,5-a]pyridin-2-yl]cyclopropanecarboxamide], the IC50 at SIK2 [2] came to 0.0217 µM.

With `COc1ccc(C)cc1-c1ccn2nc(NC(=O)C3CC3)cc2c1` [Example 744, N-[5-(2-methoxy-5-methyl-phenyl)pyrazolo[1,5-a]pyridin-2-yl]cyclopropanecarboxamide], at SIK2 [2], the IC50 was 0.289 µM.

With `COc1cc(C)ccc1-c1ccn2nc(NC(=O)C3CC3)cc2c1` [Example 745, N-[5-(2-methoxy-4-methyl-phenyl)pyrazolo[1,5-a]pyridin-2-yl]cyclopropanecarboxamide], the IC50 at SIK2 [2] came out at 3.52 µM.

Turning to `COc1cccc(C)c1-c1ccn2nc(NC(=O)C3CC3)cc2c1` [Example 746, N-[5-(2-methoxy-6-methyl-phenyl)pyrazolo[1,5-a]pyridin-2-yl]cyclopropanecarboxamide], on SIK2 [2], the IC50 amounted to 0.271 µM.

As for `COc1c(C)cccc1-c1ccn2nc(NC(=O)C3CC3)cc2c1` [Example 747, N-[5-(2-methoxy-3-methyl-phenyl)pyrazolo[1,5-a]pyridin-2-yl]cyclopropanecarboxamide], on SIK2 [2], the half-maximal inhibitory concentration (IC50) came out at 0.0312 µM.

On to `COc1ncccc1-c1ccn2nc(NC(=O)C3CC3)cc2c1` [Example 748, N-[5-(2-methoxy-3-pyridyl)pyrazolo[1,5-a]pyridin-2-yl]cyclopropanecarboxamide], for which the half-maximal inhibitory concentration (IC50) on SIK2 [2] was 0.0965 µM.

On to `COc1cccnc1-c1ccn2nc(NC(=O)C3CC3)cc2c1` [Example 750, N-[5-(3-methoxy-2-pyridyl)pyrazolo[1,5-a]pyridin-2-yl]cyclopropanecarboxamide], for which, at SIK2 [2], the IC50 is 0.45 µM.

Turning to `COc1ccncc1-c1ccn2nc(NC(=O)C3CC3)cc2c1` [Example 751, N-[5-(4-methoxy-3-pyridyl)pyrazolo[1,5-a]pyridin-2-yl]cyclopropanecarboxamide], at SIK2 [2], the IC50 was determined as 0.198 µM.
